Structures are written as SMILES.

The values that follow come from patent publication US20240092756A1, “METHODS AND COMPOSITION FOR KRAS MODIFICATIONS” (2692372 ONTARIO, INC., priority 2020, published 2024).

The subject of one assay is phospho-ERK1/2 in MIA PaCa-2 cells (express KRAS G12C). As to the kind of experiment: ERK1/2 phosphorylation in MIA PaCa-2 cells. It is filed as cell-based, human. On the set-up: key: X: KRAS G12C bound and modulated in cells.
Conditions: not given
The procedure:
MIA PaCa-2 cells were cultured in Dulbecco's Modified Eagle's Medium (Wisent) supplemented with 10% FBS, 2.5% horse serum, and 1% penicillin/streptomycin. Cells were seeded in 6-well plates at 500,000 cells/well and incubated at 37° C., 5% CO2 for 16 hours. Cells were treated with the indicated concentrations of compound or DMSO alone and incubated at 37° C., 5% CO2 for 6 or 24 hours. Conditioned media was discarded, and adherent cells were washed with PBS before they were scraped. Cell suspensions were centrifugated at 2,000 RPM for 5 minutes at 4° C. and supernatants were discarded. Cell pellets were resuspended with 1×RIPA buffer (Millipore) and incubated on ice for 15 minutes. Protein lysates were extracted by centrifugating at 20,000 RPM for 20 minutes at 4° C. Proteins were separated and total KRas protein levels were quantified by Simple Western Immunoassay (ProteinSimple) using the 2-40 kDa Separation Module for Jess according to the manufacturer's protocol, using a protein concentration of 0.5 μg/μl and antibodies targeting KRas (clone #4F3, Sigma) and GAPDH (clone #14C10, Cell Signaling) diluted to 1:10 and 1:1600, respectively, where the latter was used as a loading control. A 3:1 ratio of rabbit to mouse HRP-conjugated secondary antibodies was used for detection. KRas protein levels were quantified relative to GAPDH loading levels and subsequently normalized to the DMSO control. Phosphorylated ERK1/2 levels were quantified by Simple Western Immunoassay (ProteinSimple) using the Protein Normalization Assay Module for Jess according to the manufacturer's protocol using a protein concentration of 0.5 μg/μl and an antibody targeting phosphor-ERK1/2 (clone #D13.14.4E, Cell Signalling) diluted to 1:10. Phosphorylated ERK1/2 levels were normalized to the Jess Protein Normalization Reagent loading control and subsequently to the DMSO control.
MIA PaCa-2 cells were cultured in Dulbecco's Modified Eagle's Medium (Wisent) supplemented with 10% FBS, 2.5% horse serum, and 1% penicillin/streptomycin. Cells were seeded in 96-well plates at a density of 25,000 cells/well and incubated at 37° C., 5% CO2 for 24 hours. The next day, cells were starved in cell culture media containing 1% FBS only at 37° C., 5% CO2 for 16 hours. Following starvation, serially-diluted compounds or DMSO alone were added to cells and incubated at 37° C., 5% CO2 for 1 or 3 hours. Prior to cell lysis, 25 ng/ml human epidermal growth factor (hEGF) (Sigma) was added to the cells and incubated at 37° C., 5% CO2 for 10 minutes. Conditioned media was discarded, and adherent cells lysed and basal ERK1/2 phosphorylation levels were measured using the Phospho-ERK (Thr202/Tyr204) Cellular HTRF kit (Perkin Elmer) according to the manufacturer's protocol. The fluorescent signal of the acceptor antibody at a wavelength of 665 nm was normalized to that of the donor antibody at 620 nm. HTRF ratios were plotted and relative IC50 values were obtained using Prism (GraphPad).
With `O=S(=O)(c1c(F)c(F)c(F)c(F)c1C(F)(F)F)N1CCN(c2ncnc3c2CCN(c2cccc4cccc(Cl)c24)C3)CC1` [Compound 32A, 7-(8-chloronaphthalen-1-yl)-4-(4-((2,3,4,5-tetrafluoro-6-(trifluoromethyl)phenyl)sulfonyl)piperazin-1-yl)-5,6,7,8-tetrahydropyrido[3,4-d]pyrimidine], the “pERK - MIA PaCa-2 - (6 hours, 5 uM)” value was “X”.
In the case of `O=S(=O)(c1c(F)c(F)c(F)c(F)c1C(F)(F)F)N1CCN(c2ncnc3c2CCN(c2cccc4ccccc24)C3)CC1` [Compound 33A, 7-(naphthalen-1-yl)-4-(4-((2,3,4,5-tetrafluoro-6-(trifluoromethyl)phenyl)sulfonyl)piperazin-1-yl)-5,6,7,8-tetrahydropyrido[3,4-d]pyrimidine], the “pERK - MIA PaCa-2 - (6 hours, 5 uM)” value is “X”.
Turning to `C[C@H]1CN(c2c(F)c(F)c(F)c(F)c2S(C)(=O)=O)CCN1c1ncnc2cc(-c3ccccc3F)c(Cl)cc12` [Compound 34A, (S)-6-chloro-7-(2-fluorophenyl)-4-(2-methyl-4-(2,3,4,5-tetrafluoro-6-(methylsulfonyl)phenyl)piperazin-1-yl)quinazoline], the “pERK - MIA PaCa-2 - (6 hours, 5 uM)” value is “X”.
`CS(=O)(=O)c1c(F)c(F)c(F)c(F)c1NC1CN(c2ncnc3cc(-c4ccccc4F)c(Cl)cc23)C1` [Compound 36A, 1-(6-chloro-7-(2-fluorophenyl)quinazolin-4-yl)-N-(2,3,4,5-tetrafluoro-6-(methylsulfonyl)phenyl)azetidin-3-amine]: the “pERK - MIA PaCa-2 - (6 hours, 5 uM)” value is given as “X”.
On to `COc1cc(N2CCc3c(ncnc3N3CCN(S(=O)(=O)c4c(F)c(F)c(F)c(F)c4C(F)(F)F)CC3)C2)c2ccccc2c1` [Compound 40A, 7-(3-methoxy-1-naphthyl)-4-[4-[2,3,4,5-tetrakis(fluoranyl)-6-[tris(fluoranyl)methyl]phenyl]sulfonylpiperazin-1-yl]-6,8-dihydro-5H-pyrido[3,4-d]pyrimidine], for which the “pERK - MIA PaCa-2 - (6 hours, 5 uM)” value is listed as “X”.

The next assay concerns the target KRAS G12C (Homo sapiens, UniProt P01116, G12C). As to the kind of experiment: SOS1-catalyzed KRAS coupled nucleotide exchange assay (Alpha technology). The assay is classed as biochemical. Further details: His; key: A: KRAS G12C bound and modulated. The note with it: inhibition of SOS1 mediated KRAS nucleotide exchange. The procedure: Method I: The inhibition of the SOS1-catalyzed nucleotide exchange activity of KRAS (e.g., KRAS G12C/C118A) was measured using Alpha (Amplified Luminescent Proximity Homogeneous Assay) technology. 20 nM GDP-bound human KRAS (G12C/C118A) protein was incubated with two-fold serially-diluted test compound or DMSO for 5 minutes at ambient temperature in reaction buffer (25 mM HEPES, pH 7.4; 10 mM MgCl2; 0.01% Triton X-100). For all subsequent steps, DTT was added to the reaction buffer at a final concentration of 1 mM. Next, GTP and SOS-1 were added in DTT-reaction buffer at final concentrations of 1.25 mM or 500 nM, respectively, and incubated at RT for 30 minutes. Finally, c-RAF RBD (50 nM final), Alpha glutathione donor beads (PerkinElmer; 20 μg/mL final), and AlphaLISAnickel chelate acceptor beads (PerkinElmer; 20 μg/mL final), all diluted in DTT-reaction buffer, were added. The reaction mixture was incubated at RT for 5 min, and then the plates were read on an EnVision® Multilabel Reader using the AlphaScreen protocol. Luminescence signal was measured at 570 nm following a 180 ms excitation at 680 nm. Signal intensity corresponded with the association of c-RAF RBD with GTP-bound KRAS G12C/C118A and was normalized to DMSO control.
Method II: Inhibition of the SOS1-catalyzed nucleotide exchange activity of KRAS^G12C was measured using Alpha technology (PerkinElmer). 50 nM GDP-bound human KRAS^G12C protein was incubated with serially-diluted compound or DMSO for 2 hrs at RT in RBD-RAS binding buffer (BPSBioscience). 1 mM GTP and 500 nM SOS-1 were added to the reaction mixture and incubated at RT for 30 min. GST-tagged RBD-cRAF was then added to the reaction mixture at a final concentration of 2.5 nM and incubated at RT for 30 min. Finally, Alpha Glutathione acceptor beads and Nickel chelate donor beads (PerkinElmer) were diluted to 1:500 and 1:250, respectively, and added to the reaction mixture. The final reaction was incubated at RT for 30 min. Plates were read on a TECAN SPARK® Multiplate Reader. The luminescence signal was measured at 615 nm following excitation at 680 nm. Signal intensity was normalized to DMSO control.
For `C[C@H]1CN(c2c(F)c(F)c(S(C)(=O)=O)c(F)c2F)CCN1c1ccnc2c(F)c(-c3c(O)cccc3F)c(Cl)cc12` (racemic) [Compound 24A, 2-(6-chloro-8-fluoro-4-((S)-2-methyl-4-(2,3,5,6-tetrafluoro-4-(methylsulfonyl)phenyl)piperazin-1-yl)quinolin-7-yl)-3-fluorophenol], the “KRAS-SOS1 Nucleotide Exchange” value is recorded as “A”.
For `Cc1cccc(C)c1-c1cc2nccc(N3CC(Nc4c(F)c(F)c([S@+](C)[O-])c(F)c4F)C3)c2cc1Cl` (racemic) [Compound 27A], the “KRAS-SOS1 Nucleotide Exchange” value is “A”.
With `C[S+]([O-])c1c(F)c(F)c(NC2CN(c3ncnc4cc(-c5ccccc5F)c(Cl)cc34)C2)c(F)c1F` (racemic) [Compound 28A, 1-(6-chloro-7-(2-fluorophenyl)quinazolin-4-yl)-N-(2,3,5,6-tetrafluoro-4-(methylsulfinyl)phenyl)azetidin-3-amine], the “KRAS-SOS1 Nucleotide Exchange” value is “A”.
The same measure, in the same setting: the entry for `C[C@H]1CN(c2c(F)c(F)c(S(C)(=O)=O)c(F)c2F)CCN1c1ccnc2c(F)c(-c3c(O)cccc3F)c(Cl)cc12` (single isomer, unassigned) [Compound 25A] is “A”.
Regarding `C[C@H]1CN(c2c(F)c(F)c(S(C)(=O)=O)c(F)c2F)CCN1c1ccnc2c(F)c(-c3c(O)cccc3F)c(Cl)cc12` (single isomer, unassigned) [Compound 26A], the “KRAS-SOS1 Nucleotide Exchange” value was “A”.
In the case of `O=S(=O)(NC1CN(c2ncnc3c2CCN(c2cccc4cccc(Cl)c24)C3)C1)c1c(F)c(F)c(F)c(F)c1F` [Compound 21A, N-(1-(7-(8-chloronaphthalen-1-yl)-5,6,7,8-tetrahydropyrido[3,4-d]pyrimidin-4-yl)azetidin-3-yl)-2,3,4,5,6-pentafluorobenzenesulfonamide], the “KRAS-SOS1 Nucleotide Exchange” value is listed as “A”.
As for `Cc1cccc(C)c1-c1cc2nccc(N3CC(Nc4c(F)c(F)c(S(C)(=O)=O)c(F)c4F)C3)c2cc1Cl` [Compound 22A, 1-(6-chloro-7-(2,6-dimethylphenyl)quinolin-4-yl)-N-(2,3,5,6-tetrafluoro-4-(methylsulfonyl)phenyl)azetidin-3-amine], the “KRAS-SOS1 Nucleotide Exchange” value is “A”.
Regarding `CS(=O)(=O)c1c(F)c(F)c(NC2CN(c3ncnc4cc(-c5ccccc5F)c(Cl)cc34)C2)c(F)c1F` [Compound 23A, 1-(6-chloro-7-(2-fluorophenyl)quinazolin-4-yl)-N-(2,3,5,6-tetrafluoro-4-(methylsulfonyl)phenyl)azetidin-3-amine], the “KRAS-SOS1 Nucleotide Exchange” value is reported as “A”.
On the same count and under the same terms, the entry for `CSc1c(F)c(F)c(N2CCN(c3ccnc4c(F)c(-c5c(O)cccc5F)c(Cl)cc34)[C@@H](C)C2)c(F)c1F` [Compound 29A, 2-(6-chloro-8-fluoro-4-((S)-2-methyl-4-(2,3,5,6-tetrafluoro-4-(methylthio)phenyl)piperazin-1-yl)quinolin-7-yl)-3-fluorophenol] is “A”; for `O=S(=O)(c1c(F)c(F)c(F)c(F)c1OC(F)F)N1CCN(c2ncnc3c2CCN(c2cccc4ccccc24)C3)CC1` [Compound 30A, 4-(4-((2-(difluoromethoxy)-3,4,5,6-tetrafluorophenyl)sulfonyl)piperazin-1-yl)-7-(naphthalen-1-yl)-5,6,7,8-tetrahydropyrido[3,4-d]pyrimidine] it is “A”; for `C[C@H]1CN(c2c(F)c(F)c(F)c(F)c2[S+](C)[O-])CCN1c1ncnc2cc(-c3ccccc3F)c(Cl)cc12` (stereo partly drawn) [Compound 38A, 6-chloro-7-(2-fluorophenyl)-4-((2S)-2-methyl-4-(2,3,4,5-tetrafluoro-6-(methylsulfinyl)phenyl)piperazin-1-yl)quinazoline] it is “A”.
Consider `Cc1cccc(C)c1-c1cc2nccc(N3CCN(Cc4c(F)c(F)c(F)c(F)c4S(C)(=O)=O)C[C@@H]3C)c2cc1Cl` [Compound 45A, (S)-6-chloro-7-(2,6-dimethylphenyl)-4-(2-methyl-4-(2,3,4,5-tetrafluoro-6-(methylsulfonyl)benzyl)piperazin-1-yl)quinoline], for which the “KRAS-SOS1 Nucleotide Exchange” value is recorded as “A”.
As to `CSc1c(F)c(F)c(F)c(F)c1N1CC(Nc2ncnc3cc(-c4ccccc4F)c(Cl)cc23)C1` [Compound 47A, 6-chloro-7-(2-fluorophenyl)-N-(1-(2,3,4,5-tetrafluoro-6-(methylthio)phenyl)azetidin-3-yl)quinazolin-4-amine], the “KRAS-SOS1 Nucleotide Exchange” value was “A”.
